Experimental data published in patent publication US20250368649A1, “TETRAHYDROPYRIDOPYRIMIDINE PAN-KRAS INHIBITORS” (Mirati Therapeutics, Inc., priority 2022, published 2025).

Tests used:
KRas WT = KRas WT (Homo sapiens, UniProt P01116); assay: KRas binding assay (TR-FRET displacement), KRas WT; conditions: TR-FRET displacement
KRas G12C = KRas G12C (Homo sapiens, UniProt P01116, G12C); type: binding; conditions: TR-FRET displacement, read-out: Binding to KRas (IC50 nM) G12C
KRas G12S = KRas G12S (Homo sapiens, UniProt P01116, G12S); type: binding; conditions: TR-FRET displacement, read-out: Binding to KRas (IC50 nM) G12S
Chain of KRas G12S (P01116 1-169 isoform P01116-2 G12S): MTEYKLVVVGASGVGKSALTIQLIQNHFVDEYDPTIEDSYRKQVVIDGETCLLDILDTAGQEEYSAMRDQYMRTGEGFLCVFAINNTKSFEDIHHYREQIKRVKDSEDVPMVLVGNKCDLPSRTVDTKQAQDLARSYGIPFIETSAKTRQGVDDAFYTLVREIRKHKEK

MKN1 cells = assay: Inhibition of KRas-mediated phosphorylation of ERK (Cisbio HTRF pERK), MKN1 cells; type: cell-based; conditions: Homo sapiens, MKN-1, 3 hour compound incubation, Cisbio pERK HTRF
Method in brief: (§1)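 On the first day, plate 6,000 cells into each well in RPMI medium with 10% fetal bovine serum.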

PSN1 cells = assay: Inhibition of KRas-mediated phosphorylation of ERK (Cisbio HTRF pERK), PSN1 cells; type: cell-based; conditions: Homo sapiens, PSN1, 3 h, 3 hour compound incubation, Cisbio pERK HTRF
Method in brief: as §1

ASPC1 cells = assay: Inhibition of KRas-mediated phosphorylation of ERK (Cisbio HTRF pERK), ASPC1 cells; type: cell-based; conditions: Homo sapiens, ASPC1, 3 h, AsPC-1 cells; 3 hr compound incubation; Cisbio pERK HTRF
H727 cells = assay: Inhibition of KRas-mediated phosphorylation of ERK (Cisbio HTRF pERK), H727 cells; type: cell-based; conditions: Homo sapiens, NCI-H727, 3 h, 3 hr compound incubation, Cisbio pERK HTRF
A549 cells = assay: Inhibition of KRas-mediated phosphorylation of ERK (Cisbio HTRF pERK), A549 cells; type: cell-based; conditions: Homo sapiens, A549, 3 h, 3 hr compound incubation, Cisbio pERK HTRF
H460 cells = assay: Inhibition of KRas-mediated phosphorylation of ERK (Cisbio HTRF pERK), H460 cells; type: cell-based; conditions: Homo sapiens, NCI-H460, 3 h, 3 hr compound incubation, Cisbio pERK HTRF
HCT116 cells = assay: Inhibition of KRas-mediated phosphorylation of ERK (Cisbio HTRF pERK), HCT116 cells; type: cell-based; conditions: Homo sapiens, HCT-116, 3 h, 3 hr compound incubation, Cisbio pERK HTRF
H358 cells = assay: Inhibition of KRas-mediated phosphorylation of ERK (Cisbio HTRF pERK), H358 cells; type: cell-based; conditions: Homo sapiens, NCI-H358, 3 h, 3 hr compound incubation, Cisbio pERK HTRF
KRas G12D = KRas G12D (Homo sapiens, UniProt P01116, G12D); assay: biochemical; conditions: Binding to KRas (IC50 nM) G12D, TR-FRET displacement, KRas G12D
Chain of KRas G12D (P01116 1-169 isoform P01116-2 G12D): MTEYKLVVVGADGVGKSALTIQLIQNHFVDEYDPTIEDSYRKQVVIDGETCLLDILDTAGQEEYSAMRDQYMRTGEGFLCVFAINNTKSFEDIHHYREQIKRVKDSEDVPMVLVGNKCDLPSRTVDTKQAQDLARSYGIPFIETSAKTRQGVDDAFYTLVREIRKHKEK

KRas G12V = KRas G12V (Homo sapiens, UniProt P01116, G12V); assay: biochemical; conditions: Binding to KRas (IC50 nM) G12V, TR-FRET displacement, KRas G12V
Chain of KRas G12V (P01116 1-169 isoform P01116-2 G12V): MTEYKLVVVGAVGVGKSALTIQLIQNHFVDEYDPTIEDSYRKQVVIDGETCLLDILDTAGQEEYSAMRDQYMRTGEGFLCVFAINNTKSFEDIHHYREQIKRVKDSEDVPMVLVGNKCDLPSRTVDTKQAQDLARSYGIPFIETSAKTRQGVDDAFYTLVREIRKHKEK

Chain of KRas G12C (P01116 1-169 isoform P01116-2 G12C): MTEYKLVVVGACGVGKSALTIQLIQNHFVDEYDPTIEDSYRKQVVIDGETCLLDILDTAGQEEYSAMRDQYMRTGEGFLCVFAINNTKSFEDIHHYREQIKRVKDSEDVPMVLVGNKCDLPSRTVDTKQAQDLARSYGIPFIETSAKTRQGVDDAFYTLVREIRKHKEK
Chain of KRas WT (P01116 1-169 isoform P01116-2): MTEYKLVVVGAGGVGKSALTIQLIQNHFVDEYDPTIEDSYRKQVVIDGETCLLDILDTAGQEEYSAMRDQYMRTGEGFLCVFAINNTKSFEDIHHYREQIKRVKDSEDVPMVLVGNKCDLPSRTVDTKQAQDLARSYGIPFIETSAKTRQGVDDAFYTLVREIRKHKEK

SMILES | IC50 (KRas WT) | IC50 (KRas G12C) | IC50 (KRas G12S) | IC50 (MKN1 cells) | IC50 (PSN1 cells) | IC50 (ASPC1 cells) | IC50 (H727 cells) | IC50 (A549 cells) | IC50 (H460 cells) | IC50 (HCT116 cells) | IC50 (H358 cells) | IC50 (KRas G12D) | IC50 (KRas G12V)
CCc1c(F)ccc2cc(O)cc(N3CCc4c(nc(OCC56CCCN5C/C(=C\F)C6)nc4N4CCCn5nc(C(=O)N(C)C)cc5C4)C3)c12 (stereo not shown) [Example 578, (Z)-5-(7-(8-ethyl-7-fluoro-3-hydroxynaphthalen-1-yl)-2-((2-(fluoromethylene)tetrahydro-1H-pyrrolizin-7a(5H)-yl)methoxy)-5,6,7,8-tetrahydropyrido[3,4-d]pyrimidin-4-yl)-N,N-dimethyl-5,6,7,8-tetrahydro-4H-pyrazolo[1,5-a][1,4]diazepine-2-carboxamide] | < 2 nM | < 2 nM | < 2 nM | 0.3 nM | 1040 nM | 1 nM | 2 nM | 4 nM | 7 nM | 36 nM | 1 nM | < 2 nM | < 2 nM
C=C1CN2CCCC2(COc2nc3c(c(N4CCC[C@@](C)(O)C4)n2)CCN(c2cc(O)cc4ccc(F)c(CC)c24)C3)C1 (stereo partly drawn) [Example 580, (3R)-1-(7-(8-ethyl-7-fluoro-3-hydroxynaphthalen-1-yl)-2-((2-methylenetetrahydro-1H-pyrrolizin-7a(5H)-yl)methoxy)-5,6,7,8-tetrahydropyrido[3,4-d]pyrimidin-4-yl)-3-methylpiperidin-3-ol] | < 2 nM | < 2 nM | < 2 nM | 1 nM | 405 nM | 16 nM | 71 nM | 26 nM | 17 nM | 71 nM | 14 nM | < 2 nM | < 2 nM
CCc1c(F)ccc2cc(O)cc(N3CCc4c(nc(OCC56CCCN5C/C(=C\F)C6)nc4N4C[C@@H]5C[C@H](C4)[C@H](O)C5)C3)c12 (stereo partly drawn) [Example 576, (1R,5R,6R)-3-(7-(8-ethyl-7-fluoro-3-hydroxynaphthalen-1-yl)-2-(((Z)-2-(fluoromethylene)tetrahydro-1H-pyrrolizin-7a(5H)-yl)methoxy)-5,6,7,8-tetrahydropyrido[3,4-d]pyrimidin-4-yl)-3-azabicyclo[3.2.1]octan-6-ol] | 3 nM | 3 nM | < 2 nM | 5.8 nM | 2760 nM | 88 nM | 57 nM | 61 nM | 57 nM | 137 nM | 49 nM | 4 nM | < 2 nM
CCc1c(F)ccc2cc(O)cc(N3CCc4c(nc(OCC56CCCN5C/C(=C\F)C6)nc4N4CCC[C@]5(C4)NC(=O)NC5=O)C3)c12 (stereo partly drawn) [Example 577, (5R)-7-(7-(8-ethyl-7-fluoro-3-hydroxynaphthalen-1-yl)-2-(((Z)-2-(fluoromethylene)tetrahydro-1H-pyrrolizin-7a(5H)-yl)methoxy)-5,6,7,8-tetrahydropyrido[3,4-d]pyrimidin-4-yl)-1,3,7-triazaspiro[4.5]decane-2,4-dione] | < 2 nM | < 2 nM | < 2 nM | 0.1 nM | 7 nM | 2 nM | 6 nM | 1 nM | 1 nM | 2 nM | 1 nM | < 2 nM | < 2 nM
